pIC50: −log10 of the molar value.
Target: MAPK14;MAPK11;MAPK12 (human) (UniProt Q16539)
Test: Inhibition of p38 Kinase Activity

pIC50	SMILES
> 6.00	Cc1ccc(C(N)=O)cc1Nc1nc(NC(C)C2CCCCC2)nc(N2CCNCC2)n1 (stereo not drawn)
> 6.00	CONC(=O)c1ccc(C)c(Nc2nc(NCCN3CCCC3)nc(N(C)CC(C)(C)C)n2)c1
> 6.00	CCCN(C)c1nc(Nc2cc(C(N)=O)ccc2C)nc(N[C@H]2CCNC2)n1
> 5.00	COc1ccc(C(=O)N2CCN(c3nc(NCC(C)c4ccccc4)nc(Nc4ccc5ncsc5c4)n3)CC2)cc1 (stereo not drawn)
> 5.00	CC1(C)[C@H]2CCC(CNc3nc(Cl)nc(Nc4ccc(S(=O)(=O)Nc5ncccn5)cc4)n3)[C@@H]1C2 (stereo partly drawn)
> 6.00	Cc1ccc(C(N)=O)cc1Nc1nc(NC2CCCCNC2)nc(N(C)CC(C)(C)C)n1 (stereo not drawn)
> 5.00	CC(CNc1nc(Nc2ccc3ncsc3c2)nc(N(C)CCCN(C)C(=O)c2cccnc2)n1)c1ccccc1 (stereo not drawn)
> 6.00	Cc1ccc(S(N)(=O)=O)cc1Nc1nc(N[C@H]2CCNC2)nc(N(C)CC(C)(C)C)n1
> 6.00	CCCCNc1nc(Nc2cc(C(N)=O)ccc2C)nc(N[C@H]2CCNC2)n1
> 5.00	CN(CC1CCC2CC1C2(C)C)c1nc(Nc2ccc3ncsc3c2)nc(N2CCN(C(=O)OC(C)(C)C)CC2)n1 (stereo not drawn)
> 5.00	CC(C)c1nc(Nc2ccc3ncsc3c2)nc(N2CCNCC2)n1
> 5.00	CC1(C)[C@H]2CC[C@H](CNc3nc(Nc4ccc5ncsc5c4)nc(N4CCNCC4)n3)[C@@H]1C2
> 5.00	CC(=O)N1CCN(c2nc(NCC(C)c3ccccc3)nc(Nc3ccc4ncsc4c3)n2)CC1 (stereo not drawn)
> 5.00	CN(CC1CCC2CC1C2(C)C)c1nc(Nc2ccc3ncsc3c2)nc(N2CCN(S(C)(=O)=O)CC2)n1 (stereo not drawn)
> 5.00	CNCCN(C)c1nc(NCC(C)c2ccccc2)nc(Nc2ccc3nc(C)sc3c2)n1 (stereo not drawn)
> 6.00	Cc1ccc(C(N)=O)cc1Nc1nc(N[C@H]2CCN(CCC#N)C2)nc(N(C)CC(C)(C)C)n1
> 6.00	Cc1ccc(C(N)=O)cc1Nc1nc(NC[C@H]2CCCN2)nc(N(C)CC2CCCC2)n1
> 5.00	NC(=O)CNc1nc(Nc2ccc3ncsc3c2)nc(NC2CCc3ccccc32)n1 (stereo not drawn)
> 5.00	CC(C)OCCNc1cc(Cl)nc(-n2cnc3ccccc32)n1
> 6.00	COCCN1CCC(Nc2nc(Nc3cc(C(N)=O)ccc3C)nc(N(C)CC(C)C)n2)C1 (stereo not drawn)
> 6.00	Cc1ccc(C(=O)NCc2ccccc2)cc1Nc1nc(N[C@H]2CCNC2)nc(N(C)CC(C)(C)C)n1
> 5.00	Clc1nc(Nc2ccc3ncsc3c2)nc(N2CCC3CCCCC3C2)n1 (stereo not drawn)
> 6.00	CONC(=O)c1ccc(C)c(Nc2nc(N(C)CC(C)(C)C)cc(N3CCCN(C)CC3)n2)c1
> 5.00	CCNC(=O)N(C)CCCN(C)c1nc(NCC(C)c2ccccc2)nc(Nc2ccc3ncsc3c2)n1 (stereo not drawn)

pIC50	SMILES
> 6.00	CCCCNc1nc(Nc2cc(C(=O)NOC)ccc2C)nc(N(C)CC(C)(C)C)n1
> 6.00	Cc1ccc(N)cc1Nc1nc(N[C@H]2CCNC2)nc(N(C)CC(C)(C)C)n1
> 6.00	Cc1ccc(C(N)=O)cc1N(C)c1nc(NC2CCCC2)nc(N[C@H]2CCNC2)n1
> 6.00	CCN1CCC[C@@H](Nc2nc(Nc3cc(C(N)=O)ccc3C)nc(N(C)CC(C)(C)C)n2)C1
> 5.00	CNc1nc(NCC(C)c2ccccc2)nc(Nc2ccc3ncsc3c2)n1 (stereo not drawn)
> 6.00	Cc1ccc(C(N)=O)cc1Nc1nc(N[C@H]2CCN(Cc3ccccn3)C2)nc(N(C)CC(C)C)n1
> 6.00	Cc1ccc(C(N)=O)cc1Nc1nc(CCC(C)C)nc(N[C@H]2CCNC2)n1
> 4.52	CONC(=O)c1ccc(F)c(Sc2nc(N[C@@H]3CCNC3)nc(N(C)CC(C)(C)C)n2)c1
> 5.00	NC(=O)C1CCN(c2nc(Nc3ccc4ncsc4c3)cc(NC3CCC3)n2)CC1
> 6.00	CONC(=O)c1ccc(C)c(Nc2nc(N(C)CC(C)(C)C)nc(N3CCCCC3)n2)c1
> 6.00	Cc1ccc(C(N)=O)cc1Nc1nc(NC2CNC2)nc(N(C)CC(C)(C)C)n1
> 6.00	CONC(=O)c1ccc(C)c(Nc2nc(N[C@@H]3CCNC3)nc(N(C)CC(C)C(F)(F)F)n2)c1 (stereo partly drawn)
> 5.00	CN(CCN(C)c1nc(NCC2CCC3CC2C3(C)C)nc(Nc2ccc3ncsc3c2)n1)C(=O)CCC(=O)O (stereo not drawn)
> 6.00	Cc1ccc(C(N)=O)cc1Nc1nc(N[C@@H]2CCN(C(C)CO)C2)nc(N(C)CC(C)(C)C)n1 (stereo partly drawn)
> 6.00	CCOC(=O)N1CCC(N(C)c2nc(Nc3cc(C(N)=O)ccc3C)nc(N(C)CC(C)C)n2)C1 (stereo not drawn)
> 6.00	Cc1ccc(C(N)=O)cc1Nc1nc(N[C@H]2CCNC2)nc(N(C)CC(C)c2ccc(Cl)cc2)n1 (stereo partly drawn)
> 5.00	NC(=O)C1CCN(c2cc(Nc3ccc4ncsc4c3)nc(NC3CCC3)n2)CC1
> 6.00	C=CCN1CC[C@H](Nc2nc(Nc3cc(C(=O)NC(C)C)ccc3C)nc(N(C)CC3CCCC3)n2)C1
> 6.00	Cc1cccc(NC(=O)c2ccc(C)c(Nc3nc(N[C@H]4CCNC4)nc(N(C)CC(C)(C)C)n3)c2)c1
> 6.00	Cc1ccc(C(N)=O)cc1Nc1nc(NCC(C)(C)C)nc(N[C@@H]2CCNC2)n1
> 6.00	Cc1ccc(C(N)=O)cc1Nc1nc(NC2CCN(Cc3ccc(C(C)C)cc3)C2)nc(N(C)CC(C)C)n1 (stereo not drawn)
> 5.00	CC1(C)[C@H]2CC[C@H](CNc3nc(Cl)nc(Nc4ccc5ncsc5c4)n3)[C@@H]1C2
> 5.00	c1nc2ccc(Nc3nc(NCC4CCCO4)nc(NC4CC4)n3)cc2s1 (stereo not drawn)
> 6.00	Cc1ccc(C(N)=O)cc1Nc1nc(N[C@H]2CCN(C(C)C)C2)nc(N(C)CC(C)C)n1

pIC50	SMILES
> 6.00	CONC(=O)c1ccc(C)c(Nc2nc(N(C)CC(C)(C)C)nc(N3CCNCC3)n2)c1
> 6.00	Cc1ccc(C(N)=O)cc1Nc1nc(NCC(C)(C)C)nc(N[C@H]2CCNC2)n1
> 6.00	CCc1ccc(C(N)=O)cc1Nc1nc(NCC(C)(C)C)nc(N[C@H]2CCNC2)n1
> 6.00	COc1cccc(NC(=O)c2ccc(C)c(Nc3nc(N[C@H]4CCNC4)nc(N(C)CC(C)(C)C)n3)c2)c1
> 6.00	Cc1ccc(C(N)=O)cc1Nc1nc(NC[C@@H]2CC[C@H]3C[C@H]2C3(C)C)nc(NC2CCNCC2)n1
> 6.00	COC(=O)c1ccc(C)c(Nc2nc(N[C@H]3CCNC3)nc(N(C)CC(C)(C)C)n2)c1
> 5.00	CC(CNc1cc(N2CCOCC2)nc(Nc2ccc3ncccc3c2)n1)c1ccccc1 (stereo not drawn)
> 6.00	CONC(=O)c1ccc(C)c(Nc2nc(N(C)CCN(C)C)nc(N(C)CC(C)(C)C)n2)c1
> 6.00	CCCC1(C)CCN(c2nc(Nc3cc(C(=O)NC)ccc3C)nc(N[C@@H]3CCNC3)n2)C1 (stereo partly drawn)
> 6.00	Cc1ccc(C(=O)NC(C)C)cc1Nc1nc(N[C@H]2CCNC2)nc(N(C)CC(C)C)n1
> 6.00	CNc1nc(Nc2cc(C(N)=O)ccc2C)nc(N[C@H]2CCNC2)n1
> 6.00	CCONC(=O)c1ccc(C)c(Nc2nc(N(C)CC(C)(C)C)nc(N3CCCNCC3)n2)c1
> 5.00	CN(CC1CC[C@H]2C[C@@H]1C2(C)C)c1nc(Nc2ccc3ncsc3c2)nc(N2CCN(C(=O)CCC(=O)O)CC2)n1 (stereo partly drawn)
> 6.00	Cc1ccc(C(N)=O)cc1Nc1nc(NC2CCN(C(C)(C)C)C2)nc(N(C)CC(C)C)n1 (stereo not drawn)
> 6.00	Cc1ccc(C(N)=O)cc1Nc1nc(NCC2(c3ccccc3)CC2)nc(N[C@H]2CCNC2)n1
> 4.52	CN1CCCN(c2nc(Sc3cc(C(N)=O)ccc3F)nc(N(C)CC(C)(C)C)n2)CC1
> 5.00	CC1(C)[C@H]2CC[C@@H](CNc3nc(Cl)nc(Nc4ccc5ncsc5c4)n3)[C@@H]1C2
> 6.00	Cc1c(Cl)cc(C(N)=O)cc1Nc1nc(N[C@H]2CCNC2)nc(N(C)CC(C)C)n1
> 5.00	CNCCN(C)c1nc(NCC(C)c2ccccc2)nc(Nc2cccc(Br)c2)n1 (stereo not drawn)
> 4.52	Cc1ccc(C(N)=O)cc1Sc1nc(N[C@@H]2CCNC2)nc(N(C)CC(C)(C)C)n1
> 6.00	Cc1ccc(C(N)=O)cc1Nc1nc(Cl)nc(N[C@@H]2CCNC2)n1
> 6.00	Cc1ccc(-c2n[nH]c(=O)[nH]2)cc1Nc1nc(N[C@@H]2CCNC2)nc(N(C)CC(C)(C)C)n1
> 6.00	Cc1ccc(-c2n[nH]c(=O)[nH]2)cc1Nc1nc(N(C)CC(C)(C)C)nc(N2CCCN(C)CC2)n1
> 6.00	Cc1ccc(C(N)=O)cc1Nc1nc(N[C@H]2CCN(C(C#N)c3ccccc3)C2)nc(N(C)CC(C)C)n1 (stereo partly drawn)

pIC50	SMILES
> 6.00	Cc1ccc(C(N)=O)cc1Nc1nc(N[C@H]2CCN(Cc3ccccc3C#N)C2)nc(N(C)CC(C)C)n1
> 4.52	CN(CC(C)(C)C)c1nc(N[C@@H]2CCNC2)nc(Sc2cc(C(N)=O)ccc2F)n1
> 5.00	CC(CNc1nc(N)nc(Nc2ccc3ncsc3c2)n1)c1ccccc1 (stereo not drawn)
> 6.00	Cc1ccc(C(N)=O)cc1Nc1nc(NCC2CCNCC2)nc(NC(C)C2CCCCC2)n1 (stereo not drawn)
> 6.00	Cc1ccc(C(N)=O)cc1Nc1nc(N[C@H]2CCN(Cc3cccc(O)c3)C2)nc(N(C)CC(C)C)n1
> 6.00	CONC(=O)c1ccc(C)c(Nc2nc(N[C@H]3CCN(C(C)C)C3)nc(N(C)CC(C)(C)C)n2)c1
> 6.00	CNC(=O)c1ccc(C(F)(F)F)c(Nc2nc(N[C@H]3CCNC3)nc(N(C)CC(C)(C)C)n2)c1
> 6.00	CCNC(=O)c1ccc(C)c(Nc2nc(NCC(C)(C)C)nc(N[C@H]3CCNC3)n2)c1
> 5.00	Cc1ccc2ncn(-c3nc(F)cc(NCCOC(C)C)n3)c2c1
> 5.00	Cc1c(Nc2nc(Cl)nc(NCC(C)c3ccccc3)n2)ccc2ncsc12 (stereo not drawn)
> 6.00	Cc1ccc(C(N)=O)cc1Nc1nc(N[C@H]2CCN(Cc3cccc(C#N)c3)C2)nc(N(C)CC(C)C)n1
> 6.00	Cc1ccc(C(=O)NC2CCCCC2)cc1Nc1nc(N[C@H]2CCNC2)nc(N(C)CC(C)(C)C)n1
> 6.00	Cc1ccc(-c2ncc[nH]2)cc1Nc1nc(N[C@@H]2CCNC2)nc(N(C)CC(C)(C)C)n1
> 5.00	CC(C)NC(=O)N(C)CCCN(C)c1nc(NCC(C)c2ccccc2)nc(Nc2ccc3ncsc3c2)n1 (stereo not drawn)
> 5.00	CC1(C)C2CCC(CNc3cc(Nc4ccc5ncsc5c4)nc(N4CCNCC4)n3)C1C2 (stereo not drawn)
> 6.00	Cc1ccc(C(N)=O)cc1Nc1nc(NCC23CC4CC(CC(C4)C2)C3)nc(NC2CCNC2)n1 (stereo not drawn)
> 6.00	Cc1ccc(C(N)=O)cc1Nc1nc(N[C@H]2CCN(C3CCCCC3)C2)nc(N(C)CC(C)C)n1
> 6.00	Cc1ccc(C(N)=O)cc1Nc1nc(N[C@H]2CCNC2)nc(N(C)CC(C)c2ccccc2)n1 (stereo partly drawn)
> 6.00	Cc1ccc(C(=O)NC#N)cc1Nc1nc(N[C@H]2CCNC2)nc(N(C)CC(C)(C)C)n1
> 6.00	CONC(=O)c1ccc(C)c(Nc2nc(N(C)CC(C)(C)C)nc(N3CCN(C)CC3)n2)c1
> 6.00	Cc1ccc(C(=O)Nc2ccc(F)cc2)cc1Nc1nc(N[C@H]2CCNC2)nc(N(C)CC(C)(C)C)n1

Source: the Kinase Knowledgebase extract (Sharma et al. 2016)
